Experimental data published in ChEMBL document CHEMBL3045588, “Synthesis and Bleaching Activity of 3-Propargylthio-4-(substituted phenyl)-4H-1, 2, 4-triazoles” (1995).
Active and inactive are the calls of the source. No cut-off for these calls is given here.

Tests used:
Lactuca sativa [1] = test: Bleaching activity against Lactuca sativa cv. Sacramento (lettuce) seedlings assessed as bleaching ratings at 10 ppm incubated for 4 days at 25 degC under 12 hr photoperiod; type: functional
Lactuca sativa [2] = test: Bleaching activity against Lactuca sativa cv. Sacramento (lettuce) seedlings assessed as bleaching ratings at 50 ppm incubated for 4 days at 25 degC under 12 hr photoperiod; type: functional
Lactuca sativa [3] = test: Bleaching activity against Lactuca sativa cv. Sacramento (lettuce) seedlings assessed as bleaching ratings at 25 ppm incubated for 4 days at 25 degC under 12 hr photoperiod; type: functional
Radish [4] = test: Reduction in chlorophyll content in Raphanus sativus cv. Osaka (radish) seedlings at 10 uM incubated for 4 days at 25 degC under 12 hr photoperiod by spectrophotometry; type: functional; parameters: scale not given: the % may be the effect or the level left
Lactuca sativa [5] = test: Bleaching activity against Lactuca sativa cv. Sacramento (lettuce) seedlings assessed as bleaching ratings at 1 ppm incubated for 4 days at 25 degC under 12 hr photoperiod; type: functional
Radish [6] = test: Reduction in chlorophyll content in Raphanus sativus cv. Osaka (radish) seedlings at 10 to 100 uM incubated for 4 days at 25 degC under 12 hr photoperiod by spectrophotometry; type: functional, organism-based
Radish [7] = test: Reduction in carotenoid content in Raphanus sativus cv. Osaka (radish) seedlings at 10 uM incubated for 4 days at 25 degC under dark conditions; type: functional, organism-based
Radish [8] = test: Reduction in chlorophyll content in Raphanus sativus cv. Osaka (radish) seedlings at 10 uM incubated for 4 days at 25 degC under dark conditions; type: functional, organism-based
Radish [9] = test: Reduction in carotenoid content in Raphanus sativus cv. Osaka (radish) seedlings at 10 uM incubated for 4 days at 25 degC under 12 hr photoperiod; type: functional; parameters: scale not given: the % may be the effect or the level left
Radish [10] = test: Reduction in phytoene accumulation in Raphanus sativus cv. Osaka (radish) seedlings at 100 uM incubated for 4 days at 25 degC under dark conditions relative to untreated control; type: functional, organism-based
Radish [11] = test: Induction of phytoene accumulation in Raphanus sativus cv. Osaka (radish) seedlings at 10 to 100 uM incubated for 4 days at 25 degC under dark conditions; type: functional, organism-based
Radish [12] = test: Reduction in carotenoid content in Raphanus sativus cv. Osaka (radish) seedlings at 10 to 100 uM incubated for 4 days at 25 degC under 12 hr photoperiod; type: functional, organism-based
Lactuca sativa [13] = test: Bleaching activity against Lactuca sativa cv. Sacramento (lettuce) seedlings assessed as bleaching ratings at 3 ppm incubated for 4 days at 25 degC under 12 hr photoperiod; type: functional
Radish [14] = test: Reduction in beta-carotene content in Raphanus sativus cv. Osaka (radish) seedlings at 10 to 100 uM incubated for 4 days at 25 degC under dark conditions; type: functional, organism-based
Radish [15] = test: Induction of phytoene accumulation in Raphanus sativus cv. Osaka (radish) seedlings at 50 uM incubated for 4 days at 25 degC under dark conditions relative to untreated control; type: functional
Lactuca sativa [16] = test: Bleaching activity against Lactuca sativa cv. Sacramento (lettuce) seedlings assessed as bleaching ratings at 5 ppm incubated for 4 days at 25 degC under 12 hr photoperiod; type: functional
Radish [17] = test: Reduction in chlorophyll content in Raphanus sativus cv. Osaka (radish) seedlings at 100 uM incubated for 4 days at 25 degC under 12 hr photoperiod by spectrophotometry; type: functional, organism-based
Radish [18] = test: Reduction in carotenoid content in Raphanus sativus cv. Osaka (radish) seedlings at 100 uM incubated for 4 days at 25 degC under 12 hr photoperiod; type: functional, organism-based

SMILES	Activity (Lactuca sativa [1])	Activity (Lactuca sativa [2])	Activity (Lactuca sativa [3])	Activity (Lactuca sativa [5])	Activity (Lactuca sativa [13])	Activity (Lactuca sativa [16])	other results
c1ccc(CSc2nncn2-c2ccccc2)cc1	1	2	1	–	–	–	–
C#CCSc1nncn1-c1ccc(Cl)cc1	3	–	4	0	1	2	Activity (Radish [4]): 60%; Activity (Radish [6]): Active; Activity (Radish [7]): Active; Activity (Radish [8]): Active; Activity (Radish [9]): 60%; Activity (Radish [10]): Active; Activity (Radish [11]): Active; Activity (Radish [12]): Active; Activity (Radish [14]): Active; fold change (FC) (Radish [15]): 150
COCSc1nncn1-c1ccccc1	0	0	0	–	–	–	–
C#CCSc1nncn1-c1ccccc1Cl	0	–	0	0	0	0	Activity (Radish [17]): inactive; Activity (Radish [18]): inactive
C#CCSc1nncn1-c1cccc(C(F)(F)F)c1	3	–	3	0	1	2	–
CSc1nncn1-c1ccccc1	0	0	0	–	–	–	–
Sc1nncn1-c1ccccc1	0	0	0	–	–	–	–
CCCS(=O)(=O)c1nncn1-c1ccccc1	0	0	0	–	–	–	–
CCSc1nncn1-c1ccccc1	1	3	2	–	–	–	–
C#CCSc1nncn1-c1ccccc1	1	4	3	0	0	0	–
CCCCSc1nncn1-c1ccccc1	0	2	1	–	–	–	–
C#CCSc1nncn1-c1ccc(Cl)c(Cl)c1	4	–	4	0	2	3	–
C#CCSc1nncn1-c1cccc(Cl)c1	3	–	4	0	2	3	Activity (Radish [4]): 60%; Activity (Radish [6]): Active; Activity (Radish [7]): Active; Activity (Radish [8]): Active; Activity (Radish [9]): 60%; Activity (Radish [11]): Active; Activity (Radish [12]): Active; Activity (Radish [14]): Active
C#CCSc1nncn1-c1ccc(OCC)cc1	3	–	3	0	1	2	–
C#CCSc1nncn1-c1ccc(C(F)(F)F)cc1	3	–	3	0	1	2	–
C=CCSc1nncn1-c1ccccc1	0	0	0	–	–	–	–
CCCSc1nncn1-c1ccccc1	1	4	2	–	–	–	–
C#CCSc1nncn1-c1ccc(C)cc1	3	–	3	0	1	3	–
